Data as given in patent US20060142393A1, “Bis(thio-hydrazide amides) for treatment of hyperplasia” (priority 2004, published 2006).
Where two headings read alike, the source gives them in different places.

Legend:
[1] = tested on: MES-SA/DX5; experiment: MTS growth inhibition, multi-drug resistant MES-SA/DX5 cells; format: cell-based, human; details: for IC50: Homo sapiens
Description: (§1) The in vitro activity of the compounds was assessed in a selected set of human cancer cell lines.
(§2) MES—SA, a model of uterine sarcoma, is sensitive to a number of chemotherapeutic agents, including Doxorubicin, Dactinomycin, Mitomycin C, Taxol™ and Bleomycin, but resistant to Vinblastine and Cisplatin. MES—SA/DX5 was established in the presence of increasing concentrations of Doxorubicin. […] Both MES—SA and MES—SA/Dx5 were purchased from ATCC (ATCC CRL-1976 and ATCC CRL-1977, respectively).
(§3) All experiments were performed on exponentially growing cell culture. Cell densities were 2.5×10^4 cells/ml in all experiment except special.

[2] = tested on: HL-60; experiment: MTS growth inhibition, HL-60 cells; format: cell-based; details: Homo sapiens, HL-60, 72 h, MTS assay
Description: (§4) The in vitro activity of the compounds was assessed in a selected set of human cancer cell lines. Three pairs of tumor cell lines (non-resistant/resistant) were used to identify novel potent antitumor compounds which are capable of overcoming multi-drug resistance.
(§5) HL-60, a model of myeloid leukemia, was obtained from ATCC (ATCC CCL-240); and HL60/TX1000 was isolated in vitro by subculturing HL-60 in progressively higher concentration of Taxol™. HL-60/TX1000 cells over-express mdr-1 mRNA and p-glycoprotein (PCP), as determined by western blot and immunofluorescence labeling with antiPGP antibodies. The cells are cross-resistant to Taxol™, Vincristine, Adriamycin, Etoposide and Doxorubicin.
as §3

[3] = tested on: HL-60/TX1000; experiment: MTS growth inhibition, multi-drug resistant HL-60/TX1000 cells; format: cell-based, human; details: for IC50: Homo sapiens, HL60/TX1000, 72 hours, MTS assay, MDR cell line
Description: as §4, §5, §3

[4] = tested on: Bowes/OV2; experiment: MTS growth inhibition, Vincristine resistant Bowes/OV2 cells; format: cell-based, human; details: for IC50: Homo sapiens, 72 hours, MTS assay, MDR cell line
Description: as §4
(§6) Bowes is a melanoma cell line; and Bowes/OV2 is a Vincristine resistant Bowes melanoma cell line.
as §3

[5] = MTS cytotoxicity, 39SK normal fibroblast; format: cell-based; details: human, 39SK cells (normal fibroblast), MTS assay, read-out: In vitro Cytotoxicity IC50, 39SK
[6] = tested on: Jurkat; experiment: MTS cytotoxicity, Jurkat T cell leukemia; details: Homo sapiens, 72 h, read-out: In vitro Cytotoxicity IC50, Jurkat
Description: (§7) The in vitro activity of the compounds was determined in a selected set of human leukemia cell lines. CEM (T-cell leukemia), Jurkat (T-cell leukemia), K562 (chronic myelocyte), THP-1 (monocyte), SB (B-cell leukemia), U937 (lymphoma) were purchased from ATCC. H2 leukemia cell line was a gift from Harvard Medical School. The cell lines were maintained in RPMI1640(GIBCO) supplemented with 10% FCS, 100 units/ml penicillin, 100 ug/ml streptomycin, and 2 mM L-glutamine. […] All experiments were performed on exponentially growing cell culture. Cell densities were 2.5×10^4 cells/mL in all experiments.
(§8) Final concentrations […] were obtained by diluting the stock solution directly into the tissue culture medium. Cells were incubated with varying concentrations of compounds for 72 hours and the IC50 was determined by MTS (i.e. […]) assay.

[7] = tested on: CEM; experiment: MTS cytotoxicity, CEM T cell leukemia; details: Homo sapiens, CCRF-CEM, 72 h, read-out: In vitro Cytotoxicity IC50, CEM
Description: as §7, §8

[8] = tested on: K-562; experiment: MTS cytotoxicity, K-562 chronic myelocyte; format: cell-based; details: Homo sapiens, K562, 72 hours, MTS assay, read-out: In vitro Cytotoxicity IC50, K-562
Description: as §7, §8

[9] = tested on: THP-1; experiment: MTS cytotoxicity, THP-1 monocyte; details: Homo sapiens, THP-1, 72 h, read-out: In vitro Cytotoxicity IC50, THP-1
Description: as §7, §8

[10] = tested on: U937; experiment: MTS cytotoxicity, U937 lymphoma; format: cell-based; details: Homo sapiens, U-937, 72 hours, MTS assay, read-out: In vitro Cytotoxicity IC50, U937
Description: as §7, §8

[11] = tested on: SB; experiment: MTS cytotoxicity, SB B cell leukemia; details: Homo sapiens, 72 h, read-out: In vitro Cytotoxicity IC50, SB
Description: as §7, §8

[12] = tested on: H2; experiment: MTS cytotoxicity, H2 leukemia; format: cell-based; details: Homo sapiens, 72 hours, MTS assay, read-out: In vitro Cytotoxicity IC50, H2
Description: as §7, §8

[13] = tested on: Bowes; experiment: MTS growth inhibition, Bowes melanoma cells; format: cell-based; details: Homo sapiens, 72 h, MTS assay
Description: as §4, §6, §3

[14] = tested on: MDA-435 human breast tumor; experiment: MDA-435 human breast carcinoma tumors in nude mice, combination with Epothilone D; format: in vivo; details: Compound (1) 50 mg/kg + Epothilone D 5 mg/kg intravenously, 3 times a week for 3 weeks
Description: A supplemented media was prepared from 50% DMEM/Dulbecco Modified Eagle Medium (High Glucose), 50% RPMI 1640, 10% FBS/Fetal Bovine Serum (Hybridoma Tested; Sterile Filtered), 1% L-Glutamine, 1% Penicillin-Streptomycin, 1% MEM Sodium Pyruvate and 1% MEM Non-Essential Amino Acids. FBS was obtained from Sigma Chemical Co. and other ingredients were obtained from Invitrogen Life Technologies, USA). The supplemental media was warmed to 37° C and 50 ml of media was added to a 175 cm^2 tissue culture flask.
The cells used in the assay were MDA-435 Human Breast Carcinoma from the American Type Culture Collection. 1 vial of MDA-435 cells from the liquid nitrogen frozen cell stock was removed. The frozen vial of cells was immediately placed into a 37° C. water bath and gently swirled until thawed. The freeze-vial was wiped with 70% ethanol and cells were immediately pipetted into the 175 cm^2 tissue culture flask containing supplemented media. […]

[15] = tested on: CEM cells; experiment: Human T-cell leukemia (CEM) growth in SCID mice, FACS quantitation of CEM cells in blood; format: in vivo; details: 25 mg/kg intraperitoneally twice a day for 3 weeks; blood at day 33; CEM cells in white blood cells by FACS
From the text: Human T-cell leukemia cell line, CEM, was obtained from American Type Culture Collection. Eight-week old female SCID mice were purchased from Charles Rive Laboratories (Wilmington, Mass.). FITC conjugated anti-human […] was obtained from BD […]). ACK lysing buffer was obtained from BioWhittaker. […] After three weeks treatment, blood was taken from mouse retro-orbital sinus at day 33. Red blood cells were partially lyzed with ACK lysing buffer. The cells were stained with FITC conjugated anti-human […] antibody for one hour at 4° C. FACS analysis was performed to quantitate the amount of CEM cells in the blood. White blood cells were gated for FACS analysis.

[16] = tested on: MES-SA; experiment: MTS growth inhibition, MES-SA cells; format: cell-based; details: Homo sapiens, 72 h, MTS assay
Description: as §1, §2, §3

[17] = tested on: MES-SA/DX5 human sarcoma tumor; experiment: MES-SA/DX5 human uterine sarcoma tumors in nude mice; format: in vivo; details: 15 mg/kg intravenously, 3 times a week for 3 weeks
Description: A supplemented media was prepared from 50% DMEM/Dulbecco Modified Eagle Medium (High Glucose), 50% RPMI 1640, 10% FBS/Fetal Bovine Serum (Hybridoma Tested; Sterile Filtered), 1% L-Glutamine, 1% Penicillin-Streptomycin, 1% MEM Sodium Pyruvate and 1% MEM Non-Essential Amino Acids. FBS was obtained from Sigmna Chemical Co. and other ingredients were obtained from Invitrogen Life Technologies, USA). The supplemental media was warmed to 37° C. and 50 ml of media was added to a 175 cm^2 tissue culture flask.
The cells used in the assay were multi-drug resistant MES—SA/DX-5 Human Uterine Sarcoma cells from the American Type Culture Collection. 1 vial of MES—SA/DX-5 cells from the liquid nitrogen frozen cell stock was removed. The frozen vial of cells was immediately placed into a 37° C. water bath and gently swirled until thawed. The freeze-vial was wiped with 70% ethanol and cells were immediately pipetted into the 175 cm^2 tissue culture flask containing supplemented media. […]
The flask was washed with 10 ml of sterile room temperature phosphate buffered saline (PBS). […] The supernatant was aspirated and the cell pellet was resuspended in 10 ml of supplemented media and the cells were counted. […]
The above procedure for trypsinizing and centrifuging the cells were followed. The supernatant was aspirated and the cell pellet was resuspended in 10 ml of sterile PBS and the cells were counted. […]

[18] = MES-SA/Dx5, read-out: IC50 MES/DX5
[19] = MES-SA/Dx5, Example 2, protocol of Example 1, MDR uterine sarcoma cell line, read-out: IC50 MES/DX5
[20] = MES-SA/Dx5, 72 hours, MTS assay, MDR cell line, read-out: IC50 MES-SA/DX5

`CN(NC(=O)CC(=O)NN(C)C(=S)c1cc(Cl)ccc1Cl)C(=S)c1cc(Cl)ccc1Cl` [Compound (14)] showed an IC50 [1, 18] of 10 nM.
`CN(NC(=O)CC(=O)NN(C)C(=S)C1CC1)C(=S)C1CC1` [(18)] gave an IC50 [1, 19] of 10 nM.
In the case of `COc1ccc(C)c(C(=S)N(C)NC(=O)CC(=O)NN(C)C(=S)c2cc(OC)ccc2C)c1` [Compound (13)], the IC50 [1, 18] is reported as 50 nM.
Work on `CC(=O)O[C@H]1C(=O)[C@@]2(C)[C@H]([C@H](OC(=O)c3ccccc3)[C@]3(O)C[C@H](OC(=O)[C@H](O)[C@@H](NC(=O)c4ccccc4)c4ccccc4)C(C)=C1C3(C)C)[C@]1(OC(C)=O)CO[C@@H]1C[C@@H]2O` [Taxol ™, paclitaxel] yielded an IC50 [1, 20] of 5000 nM, an IC50 [1, 19] of 5000 nM and an IC50 [2] of 2 to 5 nM. The IC50 [3] was 5000 nM, the IC50 [4] was 5000 nM and the IC50 at 72 h [5] was 1000 nM. It also gave an IC50 [6] of 1 nM, an IC50 [7] of 10 nM and an IC50 [8] of 5 nM. It also gave an IC50 [9] of 5 nM, an IC50 [10] of 5 nM and an IC50 [11] of 1 nM. The IC50 [12] was 5 nM.
For `CN(NC(=O)CC(=O)NN(C)C(=S)c1ccccc1)C(=S)c1ccccc1` [Compound (1)], the IC50 ([1]; MES-SA/Dx5, 72 h, read-out: IC50 MES-SA/DX5) was 5 nM, the “specificity against MES-SA/DX5” value ([1]; IC50 MES-SA / IC50 MES-SA/DX5 (=0.05/0.005)) was 10 and the IC50 [2] was 400 nM. For the same compound, the IC50 [3] was 50 nM, the “specificity against HL60/TX1000” value ([3]; IC50 HL-60 / IC50 HL-60/TX1000 (=0.4/0.05)) was 8 and the IC50 [13] was 200 nM. For the same compound, the IC50 [4] was 10 nM, the “specificity against Bowes/OV2” value ([4]; IC50 Bowes / IC50 Bowes/OV2 (=0.2/0.01)) was 20 and the “effect on anti-tumor activity of Epothilone D” value ([14]; FIG. 2) was “significantly enhanced anti-tumor activity of Epothilone D”. The “toxicity of combination with Epothilone D (body weight)” value ([14]; FIG. 3) was “without increasing toxicity”, the IC50 [7] was 10 nM and the IC50 [11] was 5 nM. The “% circulating leukemia cells” value [15] was about 4.6%.
`CC[C@]1(O)C[C@H]2CN(CCc3c([nH]c4ccccc34)[C@@](C(=O)OC)(c3cc4c(cc3OC)N(C=O)[C@H]3[C@@](O)(C(=O)OC)[C@H](OC(C)=O)[C@]5(CC)C=CCN6CC[C@]43[C@@H]65)C2)C1` [Vincristine] showed an IC50 [16] of 2 to 5 nM, an IC50 [1, 20] of 5000 nM and an IC50 [2] of 2 to 5 nM. The IC50 [3] was 5000 nM, the IC50 [13] was 2 to 5 nM and the IC50 [4] was 5000 nM. The IC50 at 72 h [5] was 1000 nM, the IC50 [6] was 1 nM and the IC50 [7] was 5 nM. It also gave an IC50 [8] of 5 nM, an IC50 [9] of 5 nM and an IC50 [10] of 5 nM. It also gave an IC50 [11] of 1 nM and an IC50 [12] of 5 nM.
For `COc1cccc(C(=S)N(C)NC(=O)C(C)C(=O)NN(C)C(=S)c2cccc(OC)c2OC)c1OC` [Compound (12)], the IC50 [1, 18] was 5 nM.
For `CCN(NC(=O)C(C)C(=O)NN(CC)C(=S)c1ccccc1)C(=S)c1ccccc1` [Compound (16)], the IC50 [1, 18] was 50 nM, the “toxicity (body weight suppression, behavior changes)” value [17] was “no obvious toxicity” and the “tumor growth of MES/SA-DX5 compared to vehicle treated mice” value ([17]; FIG. 1) was “significantly inhibits the tumor growth”.
